Read-outs that look alike come from different tables or passages of the source.
Molecular target: T1, GLP-1R (Homo sapiens, UniProt P43220)
T1 construct: host or cells: GLP-1R CRE-bla CHO-K1 cells
Assay: EC20 GLP-1(9-36) PAM cAMP assay: dose response of compound in the presence of fixed concentration of GLP-1(9-36)
Format: cell-based
Conditions: GLP-1R CRE-bla CHO-K1 cells, read-out: EC20 GLP-1(9-36) PAM EC50
In short: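 Positive allosteric modulation read as cAMP accumulation: compound titrations (12 points) combined with an EC20 level of GLP-1(9-36) on CHO-K1 GLP-1R CRE-bla cells, IBMX present, 30 min, 37 °C, pH 7.4 buffer. Luminescence converted to cAMP via standards; non-linear fit gave EC50 and Emax.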

[1] = compound dose response with fixed concentration of GLP-1(9-36)
[2] = dose response of compound in presence of fixed concentration of GLP-1(9-36)

T1 sequence (P43220 24-463): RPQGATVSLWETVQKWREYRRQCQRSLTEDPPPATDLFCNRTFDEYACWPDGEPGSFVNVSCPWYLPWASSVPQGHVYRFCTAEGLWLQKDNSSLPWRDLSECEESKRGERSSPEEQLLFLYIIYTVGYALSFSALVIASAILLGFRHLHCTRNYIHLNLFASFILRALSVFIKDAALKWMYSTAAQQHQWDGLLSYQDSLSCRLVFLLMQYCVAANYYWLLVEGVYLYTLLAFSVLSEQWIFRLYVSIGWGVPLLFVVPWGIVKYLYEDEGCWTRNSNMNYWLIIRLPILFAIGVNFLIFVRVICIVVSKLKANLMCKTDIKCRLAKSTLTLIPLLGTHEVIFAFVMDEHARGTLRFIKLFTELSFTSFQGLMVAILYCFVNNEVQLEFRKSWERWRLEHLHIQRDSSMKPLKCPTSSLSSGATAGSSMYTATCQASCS
T1 sequence (P01275 100-127 partner limits assumed): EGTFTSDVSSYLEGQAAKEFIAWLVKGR

Compound | EC50 [1] | EC50 [2]
CCC[C@H]1CC[C@H](C2CCN(c3cnc(-c4ccc(C[C@H](NC(=O)c5ccc(C(C)(C)C)s5)C(=O)N[C@H](C)C(=O)O)cc4)nc3)CC2)CC1 [Compound 1437] | < 800 nM | –
CCCCCCCOc1ccc(-c2cnc(-c3ccc(C[C@H](NC(=O)c4ccc(OCC(C)C)cc4)C(=O)N[C@H](C)C(=O)O)cc3)nc2)cc1 [Compound 829] | – | 5000 to 10000 nM
CCCCCCCOc1ccc(-c2cnc(-c3ccc(C[C@H](NC(=O)c4ccc(O)c(F)c4)C(=O)NC(C(=O)O)C(O)c4ccccc4)cc3)nc2)cc1 (stereo partly drawn) [Compound 960] | – | 800 to 2500 nM
CC[C@H]1CC[C@H](c2ccc(-c3cnc(-c4ccc(C[C@H](NC(=O)c5ccc(C(C)=O)cc5)C(=O)O)cc4)nc3)cc2)CC1 [Compound 1376] | 800 to 2500 nM | –
CCCCCCCOc1ccc(-c2cnc(-c3ccc(C[C@H](NC(=O)c4ccc(C(C)(C)CC)cc4)C(=O)N4CC[C@H](C(=O)O)C4)cc3)nc2)cc1 [Compound 859] | – | 2500 to 5000 nM
CC(C)CCCOc1ccc(-c2cnc(-c3ccc(C[C@H](NC(=O)c4ccc(C(C)(C)C)s4)C(=O)NC(C(=O)O)C(O)c4ccccc4)cc3)nc2)cc1 (stereo partly drawn) [Compound 924] | – | 2500 to 5000 nM
C[C@@H](NC(=O)[C@H](Cc1ccc(-c2ncc(-c3ccc(-c4ccc(Br)cc4)cc3)cn2)cc1)NC(=O)c1ccc(C(C)(C)C)s1)C(=O)O [Compound 1293] | < 800 nM | –
CC(C)(C)c1ccc(C(=O)N[C@@H](Cc2ccc(-c3ncc(-c4ccc(-c5ccccc5OC(F)(F)F)cc4F)cn3)cc2)C(=O)N2CC(C(=O)O)C2)s1 [Compound 1224] | < 800 nM | –
CCCCCC(=O)c1ccc(-c2cnc(-c3ccc(C[C@H](NC(=O)c4ccc(C(C)(C)C)cc4)C(=O)N[C@H](C)C(=O)O)cc3)nc2)cc1 [Compound 725] | – | 800 to 2500 nM
CCCCCCCOc1ccc(-c2cnc(-c3ccc(C[C@H](NC(=O)c4ccc(C(C)(C)C)s4)C(=O)N4CC[C@H]4C(=O)O)cc3)nc2)cc1 [Compound 668] | – | 800 to 2500 nM
CCCCCCCOc1ccc(-c2cnc(-c3ccc(C[C@H](NC(=O)c4ccc(C(C)(C)C)s4)C(=O)N[C@@H](CCCN)C(=O)O)cc3)nc2)cc1 [Compound 393] | – | 800 to 2500 nM
CCC[C@H]1CC[C@H](C2CCN(c3cnc(-c4ccc(C[C@H](NC(=O)c5ccc(C(C)(C)C)s5)C(=O)N[C@H](Cc5c[nH]cn5)C(=O)O)cc4)nc3)CC2)CC1 [Compound 1446] | < 800 nM | –
CC[C@H]1CC[C@H](c2ccc(N3CCN(c4ccc(C[C@H](NC(=O)c5ccc(C(C)(C)C)s5)C(=O)O)cc4)CC3)cc2)CC1 [Compound 1059, (S)-2-(5-(tert-butyl)thiophene-2-carboxamido)-3-(4-(4-(4-((1r,4r)-4-ethylcyclohexyl)phenyl)piperazin-1-yl)phenyl)propanoic acid] | – | 5000 to 10000 nM
CC[C@H]1CC[C@H](c2ccc(-c3cnc(-c4ccc(C[C@H](NC(=O)c5ccc(OC(F)(F)F)cc5)C(=O)O)cc4)nc3)cc2)CC1 [Compound 1384] | 800 to 2500 nM | –
CCCCCCCOc1ccc(-c2cnc(-c3ccc(C[C@H](NC(=O)c4ccc(C(C)(C)C)s4)C(=O)N4CC(C(=O)O)CCC4C)cc3)nc2)cc1 (stereo partly drawn) [Compound 653] | – | < 800 nM
C[C@@H](NC(=O)[C@H](Cc1ccc(-c2ncc(-c3ccc(C4=CCC(F)(F)CC4)cc3)cn2)cc1)NC(=O)c1ccc(C(C)(C)C)s1)C(=O)O [Compound 1151] | – | < 800 nM
CCC[C@H]1CC[C@H](C2CCN(c3cnc(-c4ccc(CC(NC(=O)c5ccc(C(C)(C)C)s5)C(=O)NS(=O)(=O)CCN(C)C)cc4)nc3)CC2)CC1 (stereo partly drawn) [Compound 1547] | < 800 nM | –
CC(C)Oc1cc(-c2cnc(-c3ccc(C[C@H](NC(=O)c4ccc(C(C)(C)C)s4)C(=O)N[C@H](C)C(=O)O)cc3)nc2)ccc1OC(F)(F)F [Compound 1013] | – | 5000 to 10000 nM

Compound | EC50 [1] | EC50 [2]
CCCCCCCOc1ccc(-c2cnc(-c3ccc(C[C@H](NC(=O)c4ccc(C(C)(C)C#N)cc4)C(=O)N4CC[C@H](C(=O)O)C4)cc3)nc2)cc1 [Compound 860] | – | 800 to 2500 nM
CCCCCCCOc1ccc(-c2cnc(-c3ccc(C[C@H](NC(=O)c4ccc(C(C)(C)C)s4)C(=O)NC4CCC(C(=O)O)C4)cc3)nc2)cc1 (stereo partly drawn) [Compound 608] | – | 800 to 2500 nM
CC(C)COc1cc(-c2cnc(-c3ccc(C[C@H](NC(=O)c4ccc(C(C)(C)C)s4)C(=O)N[C@H](C)C(=O)O)cc3)nc2)cc(Cl)c1F [Compound 1011] | – | 2500 to 5000 nM
CCC[C@H]1CC[C@H](C2CCN(c3cnc(-c4ccc(C[C@H](NC(=O)c5ccc(C(C)(C)C)s5)C(=O)N[C@H](CC(N)=O)C(=O)O)cc4)nc3)CC2)CC1 [Compound 1460] | < 800 nM | –
CCCCCCCOc1ccc(-c2cnc(-c3ccc(C[C@H](NC(=O)c4ccc(C(C)(C)C)cc4)C(=O)N[C@@H](CCCCN)C(=O)O)cc3)nc2)cc1 [Compound 492] | – | 5000 to 10000 nM
CCCCCCCOc1ccc(-c2cnc(-c3ccc(C[C@H](NC(=O)c4ccc(C(C)(C)C)s4)C(=O)NC(C(=O)O)C(O)c4cncnc4)cc3)nc2)cc1 (stereo partly drawn) [Compound 904] | – | 2500 to 5000 nM
CCCCCCCOc1ccc(-c2cnc(-c3ccc(C[C@H](NC(=O)c4ccc(C(C)(C)C)s4)C(=O)NC4(C(=O)O)CC4)cc3)nc2)cc1 [Compound 604] | – | 800 to 2500 nM
CCCCCCCOc1ccc(-c2cnc(-c3ccc(C[C@H](NC(=O)c4ccc(C(C)(C)C)cc4)C(=O)N[C@@H](CC(=O)OCc4ccccc4)C(=O)O)cc3)nc2)cc1 [Compound 502, (S)-4-(benzyloxy)-2-((S)-2-(4-(tert-butyl)benzamido)-3-(4-(5-(4-(heptyloxy)phenyl)pyrimidin-2-yl)phenyl)propanamido)-4-oxobutanoic acid] | – | < 800 nM
CC(C)(C)c1ccc(C(=O)N[C@@H](Cc2ccc(-c3ncc(-c4ccc(C(C)(C)C)cc4)cn3)cc2)C(=O)NCCC(=O)O)cc1 [Compound 675] | – | 5000 to 10000 nM
CCCOc1ccc(-c2ccc(-c3cnc(-c4ccc(C[C@H](NC(=O)c5ccc(C(C)(C)C)s5)C(=O)O)cc4)nc3)c(F)c2)cc1 [Compound 1360] | 2500 to 5000 nM | –
CCCCCCCOc1ccc(-c2cnc(-c3ccc(C[C@H](NC(=O)c4ccc(C(C)(C)C)s4)C(=O)NC(C(=O)O)C(O)C4CCCO4)cc3)nc2)cc1 (stereo partly drawn) [Compound 916] | – | 800 to 2500 nM
CC(C)CCCOc1ccc(-c2cnc(-c3ccc(C[C@H](NC(=O)c4ccc(C(C)(C)C)cc4)C(=O)N[C@H](C)C(=O)O)cc3)nc2)cc1 [Compound 793] | – | 800 to 2500 nM
CC[C@H]1CC[C@H](c2ccc(-c3cnc(-c4ccc(C[C@H](NC(=O)c5ccc(C(F)(F)F)s5)C(=O)O)cc4)nc3)cc2)CC1 [Compound 1369] | 800 to 2500 nM | –
CCCCCCCCOc1ccc(-c2cnc(-c3ccc(C[C@H](NC(=O)c4ccc(C(C)(C)C)s4)C(=O)NC(C(=O)O)C(O)c4ccccc4)cc3)nc2)cc1 (stereo partly drawn) [Compound 926] | – | 800 to 2500 nM
CCCCCCCOc1ccc(-c2cnc(-c3ccc(C[C@H](NC(=O)c4ccc(C(C)(C)C)c(OC)c4)C(=O)N4CCC[C@H]4C(=O)O)cc3)nc2)cc1 [Compound 1081] | – | 800 to 2500 nM
CCOc1cc(-c2cnc(-c3ccc(C[C@H](NC(=O)c4ccc(C(C)(C)C)s4)C(=O)N[C@H](C)C(=O)O)cc3)nc2)cc(C(F)(F)F)c1 [Compound 1036] | – | 2500 to 5000 nM
Cc1ccc(-c2ccc(-c3cnc(-c4ccc(C[C@H](NC(=O)c5ccc(C(C)(C)C)s5)C(=O)N5CC(C(=O)O)C5)cc4)nc3)c(F)c2)cc1Cl [Compound 1196] | – | < 800 nM
CCC[C@H]1CC[C@H](C2CCN(c3cnc(-c4ccc(C[C@H](NC(=O)c5ccc(C6CC6)cc5)C(=O)N5CC(C(=O)O)C5)cc4)nc3)CC2)CC1 [Compound 1520] | < 800 nM | –

Reference: US10034886B2, “GLP-1 receptor modulators” (Celgene International II SÀRL, priority 2014, dated 2018)
